Laboratory results from patent US20250066840A1, “Single-cell RNA sequencing analysis pipeline for predicting cell sensitivities to various drugs” (Regents of the University of Minnesota, priority 2023, published 2025).
Where two headings read alike, the source gives them in different places.

Legend:
[1] = test system: CFPAC1 cells; conditions: Raghavan et al., 2021; cited from earlier work
[2] = test system: PDAC organoids; conditions: Shinkawa T et al, 2022; cited from earlier work
[3] = test system: docetaxel resistant DU145 cells; test: WST-1 cell viability, docetaxel-resistant DU145 cells; format: cell-based; conditions: for IC50: docetaxel resistant DU145 cells, 72-hour drug exposure, WST-1, read-out: mean half maximal inhibitory concentration (IC50)
Experimental: A DU145 prostate cancer cell line was obtained from American Type Culture […] (ATCC) and cultured in RPMI 1640 medium (Thermo Fisher Scientific), supplemented with 10% fetal bovine serum (FBS) (Gibco, Thermo Fisher Scientific) and maintained at 37° C. with 5% CO2. A docetaxel-resistant cell line model for DU145 was established by chronically exposing the parent cell line to stepwise increasing concentrations of docetaxel as previously described(41,42). Both cell lines were periodically monitored for mycoplasma using the Universal Mycoplasma Detection Kit following the manufacturer's protocol (A TCC). In vitro drug screening in both the docetaxei-resistant and control DU145 nodels was performed using either vemurafenib (PLX4032; CAS No. 918504-65-1) or docetaxel (RP-56976; CAS No. 114977-28-5) obtained from MedChem Express (Monmriouth Junction NJ, USA) dissolved in dimethylsulfoxide (DMSO) to obtain stock concentrations of 100 mM for vemurafenib or 5 mM for docetaxel.
(§1) Docetaxel-resistant and control DU145 cells were trypsinized, harvested, counterstained with Hoechst 33342 Fluorescent Stain (Thermo Scientific, Pierce Biotechnology, Rockford, IL) and resuspended in full growth media to 5×10^4 cells per mL prior to plating in 96-well microplates (Thermo Scientific) using a seeding density of 5×10^3 cells per well and allowed to attach for 24 hours. Following incubation, cells were treated with different concentrations of either docetaxel ranging from 0.92 nM to 6 uM, or vemurafenib ranging from 2.5 uM to 50 uM. Cell viability for each well was measured following a 72-hour drug exposure using the WST-1 assay [(Roche Applied. Science, Penzberg, Upper Bavaria, Germany) following the manufacturer's protocol. Absorbance at the 450 nm wavelength was assessed using the Synergy HTX Multi-Mode Plate Reader (BioTek, Winooski, VT)]. Absorbance values for each well were used to calculate percent viability relative to the no drug condition. […]

[4] = test system: mesoderm-like cells; conditions: RMS oPDX, Patel et al., 2022; cited from earlier work
[5] = test system: docetaxel sensitive DU145 cells; test: WST-1 cell viability, docetaxel-sensitive (control) DU145 cells; format: cell-based; conditions: Homo sapiens, DU-145, 72-hour drug exposure
Experimental: A DU145 prostate cancer cell line was obtained from American Type Culture […] (ATCC) and cultured in RPMI 1640 medium (Thermo Fisher Scientific), supplemented with 10% fetal bovine serum (FBS) (Gibco, Thermo Fisher Scientific) and maintained at 37° C. with 5% CO2. A docetaxel-resistant cell line model for DU145 was established by chronically exposing the parent cell line to stepwise increasing concentrations of docetaxel as previously described(41,42). Both cell lines were periodically monitored for mycoplasma using the Universal Mycoplasma Detection Kit following the manufacturer's protocol (A TCC). […]
as §1, with “Following incubation, cells were treated with different concentrations of either docetaxel ranging from 0.92 nM to 6 uM, or vemurafenib ranging from 2.5 uM to 50 uM.” left out, “VT)].” for “VT)]. Absorbance values for each well were used to calculate percent viability relative to the no drug condition.”

[6] = patients, cited from earlier work

CCc1c2c(nc3ccc(O)cc13)-c1cc3c(c(=O)n1C2)COC(=O)[C@]3(O)CC [SN-38]
response of CFPAC1 cells grown in complete classical organoid media [1]: responsive

Nc1ccn([C@@H]2O[C@H](CO)[C@@H](O)C2(F)F)c(=O)n1 [Gemcitabine]
response of basal-like vs classical-like PDAC organoids [2]: higher resistance

CC(=O)O[C@@]12CO[C@@H]1C[C@H](O)[C@@]1(C)C(=O)[C@H](O)C3=C(C)[C@@H](OC(=O)[C@H](O)[C@@H](NC(=O)OC(C)(C)C)c4ccccc4)C[C@@](O)([C@@H](OC(=O)c4ccccc4)[C@H]21)C3(C)C [docetaxel]
percent viability, resistant vs sensitive DU145 cells ([3]; docetaxel exposure, FIG. 9, two-way ANOVA): higher resistance

CCc1c2c(nc3ccc(OC(=O)N4CCC(N5CCCCC5)CC4)cc13)-c1cc3c(c(=O)n1C2)COC(=O)[C@]3(O)CC [irinotecan]
response of mesoderm-like cells compared to myoblast cells [4]: highly resistant

CCCS(=O)(=O)Nc1ccc(F)c(C(=O)c2c[nH]c3ncc(-c4ccc(Cl)cc4)cc23)c1F [vemurafenib]
IC50 [5]: 27.9 µM | IC50 ([3]; Homo sapiens, DU-145, 72 h): 12.8 µM | IC50 [3]: 12.9 µM | average maximum serum concentration (Cmax) ([6]; previous trial (Zhang W et al., 2017)): 61.4 µg/mL | average maximum serum concentration (Cmax) ([6]; previous trial, equivalent of 61.4 μg/mL): 125.3 μM/L | tolerability at Cmax ([6]; previous trial): well tolerated

CC(=O)O[C@H]1C(=O)[C@@]2(C)[C@H]([C@H](OC(=O)c3ccccc3)[C@]3(O)C[C@H](OC(=O)[C@H](O)[C@@H](NC(=O)c4ccccc4)c4ccccc4)C(C)=C1C3(C)C)[C@]1(OC(C)=O)CO[C@@H]1C[C@@H]2O [Paclitaxel]
response of CFPAC1 cells grown in complete classical organoid media [1]: responsive
